Source: US20260083844A1, “DOWNREGULATING INOS TO INCREASE CAR-T KILLING” (H. LEE MOFFITT CANCER CENTER AND RESEARCH INSTITUTE INC., priority 2022, published 2026)

Tests used:
Eμ-myc cells = test: Luciferase-based killing assay with CAR T cells isolated from initial coculture; type: cell-based, mouse; details: for ability of CAR T cells to kill tumor cells: 48 h initial coculture with Eμ-myc cells in presence of NCX-4016 (100 µM) or PNT (50 µM), no macrophages, lysis at 24 h
Experimental: (§1) 1×10^6 CAR T cells and 1×10^6 Eμ-myc-GFP-FFL cells were cocultured in the absence or presence of 0.25×10^6 macrophages in a 6-well plate in 6 ml of media for 48 h. After initial coculture, cells were harvested, and T cells were isolated using Mouse T Cell Isolation Kit ([…] Technologies). […] Percentage of CAR-expressing T cells was determined with flow cytometry and were subsequently used for downstream assays.
2×10^4 Eu-ALL-GFP-FFL cells were cocultured with CAR T cells at different effector-to-target ratios in a 96-well white-walled plate in 100 μl of media. Following incubation, 100 μl luciferase substrate reagent (ONE-Glo Luciferase assay system, Promega) was added to each well. Target cells alone were plated at the same cell density to determine maximum luciferase signals. Emitted luminescence was detected in the microplate reader (GloMax, Promega). Percent lysis was determined as (1-sample signal/maximum signal)×100.

IFN-γ and TNF-α = test: Cytokine secretion assay with CAR T cells isolated from initial coculture; type: cell-based, mouse; details: for secretion of effector cytokines IFN-γ and TNF-α by CAR T cells: 48 h initial coculture with Eμ-myc cells in presence of NCX-4016 (100 µM) or PNT (50 μM), no macrophages, supernatants at 24 h
Experimental: as §1
2×10^4 Eμ-myc cells were cocultured with 2×10^4 CAR T cells in a 96-well plate in a total volume of 100 μl of media. Supernatants were collected and analyzed for IFN-γ and TNF-α secretion using Ella automated immunoassay system (Proteinsimple Bio-techne) according to manufacturer's instructions.

CAR T cells [1] = test: CAR T cell expansion assay (live cell analysis) in coculture with Eμ-myc cells with or without macrophages; type: cell-based, mouse; details: over 48 h
Experimental: To explore how M2-like macrophages may impact the cellular function of CAR T cells, a syngeneic coculture system was employed (FIG. 2A). […] The BMDMs were differentiated into M2-like macrophages (imMac) by culturing with IL-4 and IL-10 or with media alone without further differentiation to utilize as unpolarized macrophage controls (unMac). The mCherry reporter served as a marker for CAR transduction and CAR T cell expansion.
The expansion of CAR T cells was determined by an Incucyte S3 live cell analysis system (Essen Bioscience). 2×10^4 Eμ-myc cells and 2×10^4 CAR T cells were cocultured in the absence or presence of 0.5×10^4 macrophages (CAR T:Eμ-myc cell:Macrophage=1:1:0.25, unless otherwise indicated in the figure legends) in a 96-well black-walled clear bottom plate in 120 μl of media. Cell images were captured at 4× magnification. The expansion index was calculated by dividing the total integrated red intensity (RCU×μm^2/mm^2) at each time point by the first time point.

CAR T cells [2] = test: Seahorse assay (ECAR, OCR) on CAR T cells from coculture; type: cell-based, mouse; details: 48 h coculture in the presence of imMac
Experimental: (§2) 1×10^6 CAR T cells and 1×10^6 Eμ-myc-GFP-FFL cells were cocultured in the absence or presence of 0.25×10^6 macrophages in a 6-well plate in 6 ml of media for 48 h. After initial coculture, cells were harvested, and T cells were isolated using Mouse T Cell Isolation Kit (STEMCELL Technologies). T cell purity was 100% as tested by flow cytometry. Percentage of CAR-expressing T cells was determined with flow cytometry and were subsequently used for downstream assays.
ECAR and OCR were measured using a Seahorse Extracellular Flux Analyzer (Agilent Technologies). XF96 microplates were coated with CellTak a day before analyses. To assay glycolytic function, T cells were resuspended in glucose-free XF medium supplied with 2 mM L-glutamine and 1 mM sodium pyruvate and seeded at 2×10^5 cells in 180 μl per well. Following incubation in a CO2-free incubator for 60 min at 37° C. for pH stabilization, ECAR was measured in response to 10 mM glucose, 1 μM oligomycin, and 50 mM 2-deoxyglucose. To assay mitochondrial function, T cells were resuspended in XF medium supplied with 2 mM L-glutamine, 1 mM sodium pyruvate, and 10 mM glucose and seeded at 2×10^5 cells in 180 μl per well. Following incubation in a CO2-free incubator for 60 min at 37° C. for pH stabilization, OCR was measured in response to 1 μM oligomycin, 1 μM FCCP, and 0.5 µM rotenone and antimycin.

Eμ-myc B cell tumors = test: Survival of Eμ-myc tumor-bearing Rag1−/− mice treated with CAR T cells; type: in vivo, mouse; details: combination of 1928z CAR T cells and L-NIL (20 mg/kg i.p. once per day) compared to 1928z CAR T cells alone
Experimental: Six-to 10-week-old Rag1/-mice of both sexes were intraperitoneally (i.p.) injected with 3×10^6 Eμ-myc-GFP-FFL cells to generate tumors localized in peritoneal cavity. Tumor engraftment was verified by bioluminescence imaging one day before CAR T cell transfer. Mice were randomized to different treatment groups without differences in pre-treatment tumor load. Seven days after tumor cell inoculation, mice were injected i.p. with 5×10^6 CAR T cells in 300 μl PBS. For survival experiments, L-NIL or PBS was administered i.p. once per day at 20 mg/kg body weight starting on the same day of tumor cell injection. […] Bioluminescence imaging was performed by IVIS Lumina III In Vivo Imaging System (PerkinElmer) with Living Image software (PerkinElmer).

CAR T cells [3] = test: Global metabolomics on CAR T cells from coculture; type: cell-based, mouse; details: 48 h coculture with imMac
Experimental: as §2
Global metabolomic profiling and 13C6-labeled glucose tracing of CAR T cells, 1×10^6 T cells were resuspended in either RPMI-1640 medium (RPMI+10% heat-inactivated dialyzed FBS) or 13C6-glucose substituted RPMI-1640 medium (glucose-free RPMI+10% heat-inactivated dialyzed FBS+11.1 mM ^13C6-glucose). After 4 h incubation, cells were collected, rapidly centrifuged (17,000×g, 10 sec, room temperature), and medium was removed. T cells were washed with 1 ml of ice-cold PBS, and metabolites were extracted with 300 μl of 80% methanol via incubation at −80° C. for 15 min. Samples were centrifuged (17,000×g, 20 min, 4° C.), and supernatants were transferred to an Eppendorf tube and dried in a vacuum evaporator overnight. The dried extracts were resuspended in 20 μl of aqueous 50% methanol, clarified by centrifugation (17,000×g, 20 min, room temperature), and analyzed by LC-HRMS. […]

[4] = CAR T cells cocultured with Eμ-myc cells without macrophages
[5] = cocultures of CAR T cells and Eμ-myc cells with imMac

Structure (SMILES): O=NOO [PNT, peroxynitrite]
- ability of CAR T cells to kill tumor cells (Eμ-myc cells): diminished ability of CAR T cells to kill tumor cells
- secretion of effector cytokines IFN-γ and TNF-α by CAR T cells (IFN-γ and TNF-α): diminished
- CAR T cell expansion (CAR T cells [1]; [4]): inhibition of CAR T cell expansion

Structure (SMILES): NC(=O)NCCC[C@H](N)C(=O)O [citrulline]
- CAR T cell expansion (CAR T cells [1]; [4]): did not impact expansion of CAR T cells

Structure (SMILES): C=C(CC(=O)OCCCCCCCC)C(=O)O [4-OI, 4-octyl itaconate]
- CAR T cell expansion (CAR T cells [1]; [4]): impaired CAR T cell expansion

Structure (SMILES): N=C(NO)NCC[C@H](N)C(=O)O [nor-NOHA]
- CAR T cell expansion (CAR T cells [1]; cocultures with imMac, physiological arginine concentration (150 μM)): failed to rescue CAR T cell expansion
- CAR T cell expansion (CAR T cells [1]; cocultures with imMac, supraphysiological arginine concentration (1.15 mM)): did not restore CAR T cell expansion

Structure (SMILES): CC1(C)N([O])C(c2ccc(C(=O)O)cc2)=[N+]([O-])C1(C)C [c-PTIO, carboxyl-PTIO]
- CAR T cell expansion (CAR T cells [1]; [5]): partially rescued expansion of CAR T cells

Structure (SMILES): CC(=O)Oc1ccccc1C(=O)Oc1cccc(CO[N+](=O)[O-])c1 [NCX-4016]
- ability of CAR T cells to kill tumor cells (Eμ-myc cells): diminished ability of CAR T cells to kill tumor cells
- secretion of effector cytokines IFN-γ and TNF-α by CAR T cells (IFN-γ and TNF-α): diminished
- CAR T cell expansion (CAR T cells [1]; [4]): inhibition of CAR T cell expansion

Structure (SMILES): CC(=N)NCCCC[C@H](N)C(=O)O [L-NIL, L-N6-(1-Iminoethyl)-lysine]
- glycolytic and oxidative metabolic capabilities of CAR T cells (ECAR, OCR) (CAR T cells [2]): preserved glycolytic and oxidative metabolic capabilities of CAR T cells
- capacity of CAR T cells to kill (lyse) tumor cells (Eμ-myc cells; CAR T cells isolated after 48 h initial coculture with imMac, then cocultured with fresh Eμ-myc cells, 24 h): preserved the capacity of CAR T cells to kill tumor cells
- production of effector cytokines IFN-γ and TNF-α by CAR T cells (IFN-γ and TNF-α; CAR T cells isolated after 48 h initial coculture with imMac, then cocultured with fresh Eμ-myc cells): preserved
- survival of tumor-bearing mice (Eμ-myc B cell tumors): significantly improved survival
- depletion of F1,6BP, G3P and DHAP in CAR T cells cocultured with imMac (CAR T cells [3]): reversal
- CAR T cell expansion (CAR T cells [1]; [5]): complete rescue of CAR T cell expansion
